ChEMBL document CHEMBL1157124, “Synthesis and anticancer evaluation of alpha-lipoic acid derivatives” (Bioorg Med Chem Lett, 2010)
The source made the active and inactive calls. The rule behind the calls is not given here.

How the values were obtained:
Assay type in all cases: functional
[1] = tested on: PC-3; test: Cytotoxicity against human PC3 cells assessed as growth inhibition at 10 ug/ml after 24 hrs by MTT assay; details: for inhibition of growth at 10 µg/mL: PC-3, 24 h, read-out: GI
[2] = tested on: PC-3; test: Cytotoxicity against human PC3 cells assessed as growth inhibition at 1 ug/ml after 24 hrs by MTT assay; details: for inhibition of growth at 1 µg/mL: PC-3, 24 h, read-out: GI
[3] = tested on: KB; test: Cytotoxicity against human KB cells assessed as growth inhibition at 100 ug/ml after 24 hrs by MTT assay; details: read-out: GI
[4] = tested on: Bel-7402; test: Cytotoxicity against human Bel7402 cells assessed as growth inhibition at 100 ug/ml after 24 hrs by MTT assay; details: Bel-7402, 24 h, read-out: GI
[5] = tested on: NCI-H460; test: Cytotoxicity against human NCI-H460 cells assessed as growth inhibition at 100 ug/ml after 24 hrs by MTT assay; details: NCI-H460, 24 h, read-out: GI
[6] = tested on: PC-3; test: Cytotoxicity against human PC3 cells assessed as growth inhibition at 100 ug/ml after 24 hrs by MTT assay; details: PC-3, 24 h, read-out: GI
[7] = tested on: PC-3; test: Cytotoxicity against human PC3 cells assessed as growth inhibition at 0.1 ug/ml after 24 hrs by MTT assay; details: for inhibition of growth at 0.1 µg/mL: PC-3, 24 h, read-out: GI
[8] = Cytotoxicity against human HO8910 cells assessed as growth inhibition at 100 ug/ml after 24 hrs by MTT assay; details: HO-8910, 24 h, read-out: GI
[9] = tested on: Bel-7402; test: Cytotoxicity against human Bel7402 cells assessed as growth inhibition at 1 ug/ml after 24 hrs by MTT assay; details: Bel-7402, 24 h, read-out: GI
[10] = tested on: KB; test: Cytotoxicity against human KB cells assessed as growth inhibition at 10 ug/ml after 24 hrs by MTT assay; details: read-out: GI
[11] = tested on: Bel-7402; test: Cytotoxicity against human Bel7402 cells assessed as growth inhibition at 0.1 ug/ml after 24 hrs by MTT assay; details: Bel-7402, 24 h, read-out: GI
[12] = tested on: NCI-H460; test: Cytotoxicity against human NCI-H460 cells assessed as growth inhibition at 10 ug/ml after 24 hrs by MTT assay; details: NCI-H460, 24 h, read-out: GI
[13] = tested on: NCI-H460; test: Cytotoxicity against human NCI-H460 cells assessed as growth inhibition at 0.1 ug/ml after 24 hrs by MTT assay; details: NCI-H460, 24 h, read-out: GI
[14] = tested on: Bel-7402; test: Cytotoxicity against human Bel7402 cells assessed as growth inhibition at 10 ug/ml after 24 hrs by MTT assay; details: Bel-7402, 24 h, read-out: GI
[15] = tested on: NCI-H460; test: Cytotoxicity against human NCI-H460 cells assessed as growth inhibition at 1 ug/ml after 24 hrs by MTT assay; details: NCI-H460, 24 h, read-out: GI
[16] = tested on: KB; test: Cytotoxicity against human KB cells assessed as growth inhibition at 0.1 ug/ml after 24 hrs by MTT assay; details: read-out: GI
[17] = Cytotoxicity against human HO8910 cells assessed as growth inhibition at 10 ug/ml after 24 hrs by MTT assay; details: HO-8910, 24 h, read-out: GI
[18] = tested on: KB; test: Cytotoxicity against human KB cells assessed as growth inhibition at 1 ug/ml after 24 hrs by MTT assay; details: read-out: GI
[19] = Cytotoxicity against human HO8910 cells assessed as growth inhibition at 1 ug/ml after 24 hrs by MTT assay; details: HO-8910, 24 h, read-out: GI
[20] = Cytotoxicity against human HO8910 cells assessed as growth inhibition at 0.1 ug/ml after 24 hrs by MTT assay; details: HO-8910, 24 h, read-out: GI

| SMILES | growth inhibition (GI) [1] | growth inhibition (GI) [2] | inhibition of growth at 100 µg/mL [3] [%] | inhibition of growth at 100 µg/mL [4] [%] | inhibition of growth at 100 µg/mL [5] [%] | inhibition of growth at 100 µg/mL [6] [%] | inhibition of growth at 100 µg/mL [8] [%] | inhibition of growth at 10 µg/mL [1] [%] | inhibition of growth at 1 µg/mL [9] [%] | inhibition of growth at 1 µg/mL [2] [%] | inhibition of growth at 10 µg/mL [10] [%] | inhibition of growth at 0.1 µg/mL [11] [%] | inhibition of growth at 10 µg/mL [12] [%] | inhibition of growth at 0.1 µg/mL [13] [%] | inhibition of growth at 10 µg/mL [14] [%] | inhibition of growth at 1 µg/mL [15] [%] | inhibition of growth at 0.1 µg/mL [7] [%] | inhibition of growth at 0.1 µg/mL [16] [%] | inhibition of growth at 1 µg/mL [18] [%] | inhibition of growth at 1 µg/mL [19] [%] | further results |
| --- | --- | --- | --- | --- | --- | --- | --- | --- | --- | --- | --- | --- | --- | --- | --- | --- | --- | --- | --- | --- | --- |
| O=C(CCCC[C@@H]1CCSS1)Nc1ccc([N+](=O)[O-])c(C(F)(F)F)c1 | inactive | inactive | 49.1 | 43.4 | 35.4 | 59 | 39.2 |  |  |  |  |  |  |  |  |  |  |  |  |  | growth inhibition (GI) [7]: inactive |
| O=C(CCCCC1CCSS1)Nc1cccc(Cl)c1 (stereo not given) |  |  | 76.5 | 68.2 | 65.2 | 79.5 | 68.3 | 13.8 | 1.11 | 8.44 | 7.88 | 0.33 | 10.1 | 6.08 | 4.15 | 8.85 | 17.1 | 2.85 |  |  |  |
| O=C(CCCCC(S)CCS)Nc1ccc(OC(F)(F)F)cc1 (stereo not given) |  |  | 73.3 | 49.7 | 65.1 | 75.5 | 66.8 | 42.5 | 7.32 | 12.6 | 15 |  | 29.2 | 17.2 | 14.2 | 19.1 | 14.9 | 7.27 | 6 | 0.56 | inhibition of growth at 10 µg/mL [17]: 6.11% |
| O=C(CCCC[C@H]1CCSS1)Nc1ccc([N+](=O)[O-])c(C(F)(F)F)c1 | inactive | inactive | 95.8 | 94 | 92.2 | 79.8 | 92.3 |  |  |  |  |  |  |  |  |  |  |  |  |  | inhibition of growth at 0.1 µg/mL [20]: 1.06%; growth inhibition (GI) [7]: inactive |
| O=C(O)CCCCC(CCSC(=O)c1ccccc1)SC(=O)c1ccccc1 (stereo not given) |  |  | 89.8 | 81 | 72.8 | 91.2 | 86.7 | 7.43 |  | 9.86 | 2.68 | 1.09 |  |  | 2.76 | 0.77 | 9.54 |  | 0.68 | 0.29 |  |
| Cc1cccc(NC(=O)CCCCC2CCSS2)c1 (stereo not given) |  |  | 68 | 49.9 | 52.9 | 75.1 | 62.7 | 9.57 | 10.3 | 9.98 | 4.13 | 9.88 | 4.15 | 7.97 | 9.01 | 7.82 | 2.13 | 4.29 | 5.2 | 4.54 | inhibition of growth at 0.1 µg/mL [20]: 3.68% |
| O=C(CCCCC1CCSS1)Nc1ccc([N+](=O)[O-])c(C(F)(F)F)c1 (stereo not given) | inactive | inactive | 49.5 | 23.9 | 51.6 | 90.2 | 47.6 |  | 7.46 |  |  | 5.04 | 12 | 18.8 |  | 19.1 | 5.37 | 4.5 |  | 0.96 |  |
| O=C(CCCCC1CCSS1)Nc1ccc(Cl)cc1 (stereo not given) |  |  | 83.1 | 76.4 | 68.7 | 41.2 | 74.8 | 14.7 | 0.64 | 13.7 | 21.7 | 3.37 | 18.3 | 13 | 7.01 | 10.9 | 18.9 | 16.4 | 18.6 |  | inhibition of growth at 10 µg/mL [17]: 0.75% |
| O=C(CCCCC1CCSS1)Nc1ccc([N+](=O)[O-])cc1 (stereo not given) |  |  | 71.3 | 52.6 | 56.7 | 79.6 | 64.5 | 6.67 |  | 19.9 | 14.4 |  | 22.7 | 11.9 | 4.83 | 7.45 | 13.9 | 0.22 |  | 0.33 | inhibition of growth at 10 µg/mL [17]: 0.61% |
| O=C(CCCCC(S)CCS)Nc1ccc([N+](=O)[O-])c(C(F)(F)F)c1 (stereo not given) |  |  | 95.5 | 91.7 | 95.8 | 79.9 | 92.7 | 45.5 | 0.68 | 1.08 | 4.04 | 6.54 | 0.97 | 3.2 |  | 6.29 | 8.06 |  | 10.2 | 1.17 | inhibition of growth at 0.1 µg/mL [20]: 1.95% |
